Data: ChEMBL document CHEMBL1201862, “PubChem BioAssay data set” (2004)
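Grown in 96-well plates, cells were treated for 48 hours with each compound at five concentrations. Insufficient inhibition: endpoint recorded as highest concentration tested. GI50 is the concentration that inhibits growth by half.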 Calls of active or inactive are those of the source. Cut-off read from the data, not from the text of the source: active = GI50 up to about 1.1 µM and inactive = higher.

What was measured:
Assay in all cases: NCI tumour cell line growth inhibition, 48 h
MCF7 = test system: MCF7
BT-549 = test system: BT-549
MDA-N = test system: MDA-N

SMILES	GI50 (MCF7)	GI50 (BT-549)	GI50 (MDA-N)
COc1ccc2c(c1)C(=O)CCc1cc(OC)c(OC)c(OC)c1-2	< 0.01 µM (active)		
OCCSCC(O)Cn1cnc2c(O)nc(Nc3ccccc3)nc21 (centres undefined)	> 100 µM (inactive)	> 100 µM (inactive)	> 100 µM (inactive)
CCNc1cc2c(cc1O)CC[C@@H]1[C@@H]2CC[C@]2(C)[C@@H](O)CC[C@@H]12	8.43 µM (inactive)	15.6 µM (inactive)	0.232 µM (active)
Cc1cc(Oc2cnc(=O)[nH]c2)cs1	> 100 µM (inactive)	> 100 µM (inactive)	> 100 µM (inactive)
FC(F)(F)c1nc2cc(SSc3cc4nc(C(F)(F)F)[nH]c4cc3Cl)c(Cl)cc2[nH]1	65.5 µM (inactive)	> 100 µM (inactive)	
Oc1cc(-c2ccc(Cl)cc2)cn2c1nc1ccccc12	> 100 µM (inactive)		2.99 µM (inactive)
CC1(C)OP(=O)(O)C=C1Sc1ccc([N+](=O)[O-])cc1[N+](=O)[O-]	> 100 µM (inactive)		> 100 µM (inactive)
CNC(=S)N/N=C(\C)c1cc(OC)c(OC)cc1O	> 100 µM (inactive)	> 100 µM (inactive)	> 100 µM (inactive)
COc1ccc(-c2nc(SCC(=O)N/N=C/c3ccc([N+](=O)[O-])cc3)[nH]c2-c2ccc(OC)cc2)cc1	4.44 µM (inactive)	19.1 µM (inactive)	3.16 µM (inactive)
C=CCN1CN(C2CCCCC2)CSC1=S	1.26 µM (inactive)	7.69 µM (inactive)	2.16 µM (inactive)
O=C(Nc1sccc1S(=O)(=O)c1ccccc1)c1cccnc1	8.07 µM (inactive)	> 37.1 µM (inactive)	1.02 µM (active)
COc1ccc(/C=C2\NC(=S)N(CN3CCCCC3)C2=O)cc1	21.8 µM (inactive)		70.1 µM (inactive)
CCOC(=O)c1c(CN2CCOCC2)n(Cc2ccccc2)c2c1cc(O)c1nc(C)c(C)nc12	16.7 µM (inactive)	11.5 µM (inactive)	72.8 µM (inactive)
N#Cc1cc(C#N)c(N)nc1N	> 100 µM (inactive)	> 100 µM (inactive)	> 100 µM (inactive)
Cc1ccc(C(=O)Nc2ccc(CP(=O)(O)O)cc2)cc1NC(=O)c1cccc(N)c1	> 100 µM (inactive)	> 100 µM (inactive)	> 100 µM (inactive)
Cc1ccc(Nc2n[nH]c(=S)s2)cc1	> 100 µM (inactive)		59.4 µM (inactive)
CCOC(=O)C(SCCO)C(C(=O)OCC)n1ccc(N)nc1=O (centres undefined)	> 100 µM (inactive)	> 100 µM (inactive)	> 100 µM (inactive)
CC(=O)Nc1ccc2cc(C)c(O)nc2n1		> 100 µM (inactive)	> 100 µM (inactive)
CC(C)CCCC(C)[C@H]1CCC2[C@@H]3CCC4Cc5nc6c(nc5C[C@]4(C)C3CC[C@@]21C)CC1CC[C@@H]2C(CC[C@@]3(C)C2CC[C@@H]3C(C)CCCC(C)C)[C@@]1(C)C6 (some centres undefined)	> 100 µM (inactive)	> 100 µM (inactive)	> 100 µM (inactive)
CCCOC(=O)C1C2CCC(O2)C1C(=O)O (centres undefined)	> 100 µM (inactive)	> 100 µM (inactive)	> 100 µM (inactive)
O=S(=O)(O)c1cc(/N=N/c2c(O)ccc3ccccc23)ccc1/C=C/c1ccc(/N=N/c2c(O)ccc3ccccc23)cc1S(=O)(=O)O		> 100 µM (inactive)	> 100 µM (inactive)
C=C1CC2(CCCC3(CC(=C)C(=O)O3)C2(C)C)OC1=O (centres undefined)	3.4 µM (inactive)	3.75 µM (inactive)	
CCC1CCN=C(Cn2cc(C)c(=O)[nH]c2=O)N1 (centres undefined)	> 100 µM (inactive)	> 100 µM (inactive)	> 100 µM (inactive)
Nc1nc(Br)nc2ncn(C3CC(O)C(CO)O3)c12 (centres undefined)	> 21.3 µM (inactive)	46 µM (inactive)	> 68.7 µM (inactive)

SMILES	GI50 (MCF7)	GI50 (BT-549)	GI50 (MDA-N)
C[C@@]12C[C@@H](c3ccccc3O1)N1CCCCSC1=N2	> 100 µM (inactive)	> 100 µM (inactive)	> 100 µM (inactive)
COc1cc(/C=C2/SC(c3ccccc3)N(c3ccccc3)C2=O)cc(OC)c1OC (centres undefined)	37.8 µM (inactive)	29 µM (inactive)	
CC(=O)N1C(Nc2cccc3nc(C)ccc23)CCN1c1ccccc1 (centres undefined)	> 10 µM (inactive)	> 10 µM (inactive)	> 10 µM (inactive)
CCCCc1ccc(-n2sc3ncc([N+](=O)[O-])cc3c2=O)cc1	16 µM (inactive)	17.2 µM (inactive)	14.8 µM (inactive)
Oc1ccc(-c2nc(-c3ccc4ccccc4n3)c(-c3ccc(F)cc3)[nH]2)cc1	4.61 µM (inactive)	17.7 µM (inactive)	11.9 µM (inactive)
Nc1nc2c(ncn2Cc2ccc(CO)cc2)c(=O)[nH]1	> 100 µM (inactive)	> 100 µM (inactive)	
COc1ccc(-n2c(N)c(C#N)[nH]c2=O)cc1			> 10 µM (inactive)
COc1ccc2c(C)c(Oc3c(Cl)c(Cl)c(O)c(C#N)c3C#N)oc2c1	> 100 µM (inactive)	> 100 µM (inactive)	> 100 µM (inactive)
Cc1cn(CC2=NCCN2)c(=O)[nH]c1=O	> 100 µM (inactive)	> 100 µM (inactive)	> 100 µM (inactive)
N#C/N=C1/c2ccccc2/C(=N/C#N)c2cc(CO)ccc21	30.6 µM (inactive)	18 µM (inactive)	36.6 µM (inactive)
CCN(CC)C(=O)N1CN(c2ccccc2)C2(CCN(CCCC3(c4ccc(F)cc4)OCCO3)CC2)C1=O	4.75 µM (inactive)	12.5 µM (inactive)	19.1 µM (inactive)
CCOC(=O)C1=C(C)N(Cc2ccc(Cl)cc2Cl)C2(O)C=CC(=O)C3C(=O)N(c4ccccc4)C(=O)C132 (centres undefined)	0.857 µM (active)	1.3 µM (inactive)	
Cc1cn(C2CC(O)C(Cn3nncc3Cn3ccc(=O)[nH]c3=O)O2)c(=O)[nH]c1=O (centres undefined)	> 100 µM (inactive)	> 100 µM (inactive)	> 100 µM (inactive)
CNc1ccc(Cl)cc1C(=O)N1CCC[C@H]1CO	> 100 µM (inactive)	> 100 µM (inactive)	> 100 µM (inactive)
CN(C(=O)c1ccc(Cl)cc1)C(=S)N1CCN(c2ccccc2)CC1	78.9 µM (inactive)	> 100 µM (inactive)	> 100 µM (inactive)
O=c1[nH]c(=O)n(C2OC(CO)C(O)C2O)cc1OCCc1ccccc1 (centres undefined)	> 100 µM (inactive)		> 100 µM (inactive)
CCOC(=O)c1c(C)n(-c2ccc(C)cc2)c2c1cc(O)c1[nH]c3c(c12)CCCC3	16.5 µM (inactive)	10.1 µM (inactive)	20.6 µM (inactive)
CN1C(=O)c2ccccc2OC12C=Cc1ccc(O)cc1O2 (centres undefined)	32.4 µM (inactive)	30.8 µM (inactive)	31 µM (inactive)
CCCCCCCC(=O)NS(=O)(=O)c1ccccc1		> 100 µM (inactive)	> 100 µM (inactive)
Oc1cccc2ccc(Br)nc12	> 100 µM (inactive)	> 100 µM (inactive)	> 100 µM (inactive)
CCCCCCCCCCCC(=O)N(CCCCCCCCCCC(=O)O)CC(O)C(O)C(OC1OC(CO)C(O)C(O)C1O)C(O)CO (centres undefined)	> 100 µM (inactive)	> 100 µM (inactive)	> 100 µM (inactive)
O/N=N/c1ccccn1.OCC1OC2OC3C(CO)OC(OC4C(CO)OC(OC5C(CO)OC(OC6C(CO)OC(OC7C(CO)OC(OC1C(O)C2O)C(O)C7O)C(O)C6O)C(O)C5O)C(O)C4O)C(O)C3O (centres undefined)	> 100 µM (inactive)	30.8 µM (inactive)	19.9 µM (inactive)
CC(C)[C@@H]1ON1C(C)c1ccccc1 (some centres undefined)	13.7 µM (inactive)	> 100 µM (inactive)	> 100 µM (inactive)
